The supplement of paper PMC10307832

Experiments:
Test in all cases: relative viability (nuclei count vs DMSO), 5 days (fraction); higher = more cells survive
ChaGo-K-1 = tested on: ChaGo-K-1
How it was run: (§1)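 Five library-drug doses in √10 steps were combined with a fixed anchor-drug dose, or a single drug was given alone, by pin tool to lung cancer cell lines in 1536-well plates the day after seeding. Nuclei were stained and counted after 5 days. Relative viability is the nuclei count in treated wells over that in vehicle wells, taken as the median of duplicate plates.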

SK-MES-1 = tested on: SK-MES-1
How it was run: as §1

H3255 = tested on: H3255
How it was run: as §1

COR-L23 = tested on: COR-L23
How it was run: as §1

NCI-H2023 = tested on: NCI-H2023
How it was run: as §1

NCI-H2087 = tested on: NCI-H2087
How it was run: as §1

NCI-H838 = tested on: NCI-H838
How it was run: as §1

NCI-H1944 = tested on: NCI-H1944
How it was run: as §1

EMC-BAC-2 = tested on: EMC-BAC-2
How it was run: as §1

LU99A = tested on: LU99A
How it was run: as §1

HCC-827 = tested on: HCC-827
How it was run: as §1

In the case of `COc1cc2nccc(Oc3ccc(NC(=O)Nc4cc(C)on4)c(Cl)c3)c2cc1OC` [Tivozanib] + CC(=O)c1c(C)c2cnc(Nc3ccc(N4CCNCC4)cn3)nc2n(C2CCCC2)c1=O [Palbociclib] (partner 0.5 µM), the relative viability (ChaGo-K-1; first compound 0.005 µM) is reported as 0.879, the relative viability (ChaGo-K-1; first compound 0.01581 µM) is reported as 0.916 and the relative viability (ChaGo-K-1; first compound 0.05 µM) is reported as 0.898. The relative viability (ChaGo-K-1; first compound 0.1581 µM) was 0.947, the relative viability (ChaGo-K-1; first compound 0.5 µM) was 0.886 and the relative viability (SK-MES-1; first compound 0.005 µM) was 0.306. It also gave a relative viability (SK-MES-1; first compound 0.01581 µM) of 0.345, a relative viability (SK-MES-1; first compound 0.05 µM) of 0.365 and a relative viability (SK-MES-1; first compound 0.1581 µM) of 0.326. It also gave a relative viability (SK-MES-1; first compound 0.5 µM) of 0.376, a relative viability (H3255; first compound 0.005 µM) of 0.313 and a relative viability (H3255; first compound 0.01581 µM) of 0.356. For the same compound, the relative viability (H3255; first compound 0.05 µM) was 0.294, the relative viability (H3255; first compound 0.1581 µM) was 0.334 and the relative viability (H3255; first compound 0.5 µM) was 0.328. It also gave a relative viability (COR-L23; first compound 0.005 µM) of 0.246, a relative viability (COR-L23; first compound 0.01581 µM) of 0.294 and a relative viability (COR-L23; first compound 0.05 µM) of 0.319. For the same compound, the relative viability (COR-L23; first compound 0.1581 µM) was 0.282, the relative viability (COR-L23; first compound 0.5 µM) was 0.213 and the relative viability (NCI-H2023; first compound 0.005 µM) was 0.371. It also gave a relative viability (NCI-H2023; first compound 0.01581 µM) of 0.447, a relative viability (NCI-H2023; first compound 0.05 µM) of 0.384 and a relative viability (NCI-H2023; first compound 0.1581 µM) of 0.395. The relative viability (NCI-H2023; first compound 0.5 µM) was 0.451, the relative viability (NCI-H2087; first compound 0.005 µM) was 0.271 and the relative viability (NCI-H2087; first compound 0.01581 µM) was 0.288. The relative viability (NCI-H2087; first compound 0.05 µM) was 0.259, the relative viability (NCI-H2087; first compound 0.1581 µM) was 0.231 and the relative viability (NCI-H2087; first compound 0.5 µM) was 0.231. For the same compound, the relative viability (NCI-H838; first compound 0.005 µM) was 0.227, the relative viability (NCI-H838; first compound 0.01581 µM) was 0.227 and the relative viability (NCI-H838; first compound 0.05 µM) was 0.211. For the same compound, the relative viability (NCI-H838; first compound 0.1581 µM) was 0.2, the relative viability (NCI-H838; first compound 0.5 µM) was 0.229 and the relative viability (NCI-H1944; first compound 0.005 µM) was 0.303. The relative viability (NCI-H1944; first compound 0.01581 µM) was 0.365, the relative viability (NCI-H1944; first compound 0.05 µM) was 0.344 and the relative viability (NCI-H1944; first compound 0.1581 µM) was 0.296. For the same compound, the relative viability (NCI-H1944; first compound 0.5 µM) was 0.324, the relative viability (EMC-BAC-2; first compound 0.005 µM) was 0.524 and the relative viability (EMC-BAC-2; first compound 0.01581 µM) was 0.543. It also gave a relative viability (EMC-BAC-2; first compound 0.05 µM) of 0.529, a relative viability (EMC-BAC-2; first compound 0.1581 µM) of 0.521 and a relative viability (EMC-BAC-2; first compound 0.5 µM) of 0.494. The relative viability (LU99A; first compound 0.005 µM) was 0.431, the relative viability (LU99A; first compound 0.01581 µM) was 0.412 and the relative viability (LU99A; first compound 0.05 µM) was 0.429. It also gave a relative viability (LU99A; first compound 0.1581 µM) of 0.306, a relative viability (LU99A; first compound 0.5 µM) of 0.408 and a relative viability (HCC-827; first compound 0.005 µM) of 0.498. The relative viability (HCC-827; first compound 0.01581 µM) was 0.506.
